Laboratory results taken from patent publication US8389739B1, “Modulators of retinoid-related orphan receptor gamma” (Orphagen Pharmaceuticals, priority 2006, dated 2013).

Assays:
hPPARδ = molecular target: T1, hPPARδ (Homo sapiens, UniProt Q03181); test: Crossreactive receptor transcriptional assay (Gal4 hybrid); assay type: cell-based
T1 construct: 138-441; expressed in transfected cells; host or cells: CHO cells, transient transfection
T1 sequence (Q03181 138-441): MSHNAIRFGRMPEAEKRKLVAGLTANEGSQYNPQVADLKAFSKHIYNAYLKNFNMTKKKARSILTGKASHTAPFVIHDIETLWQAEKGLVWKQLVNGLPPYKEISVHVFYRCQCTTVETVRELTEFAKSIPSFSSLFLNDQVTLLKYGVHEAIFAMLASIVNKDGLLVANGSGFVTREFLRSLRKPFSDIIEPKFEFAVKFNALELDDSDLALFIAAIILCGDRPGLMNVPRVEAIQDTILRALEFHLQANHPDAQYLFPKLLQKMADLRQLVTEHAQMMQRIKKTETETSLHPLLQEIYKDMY
Experimental: A firefly luciferase reporter gene for Gal4 DBD hybrid receptors, such as Gal4-RORγ, contains five copies of the Gal4 17-mer response element in its promoter and the coding sequence for firefly luciferase (pG5-luc, Promega). CHO (Chinese Hamster Ovary) cells were cultured in Ham's F12 medium supplemented with 10% fetal calf serum (Gemini Biologicals), 10 μg/ml penicillin and streptomycin, and were maintained in a humidified 37° C. incubator (Thermo Electron, Steri-Cycle) with 5% CO2. 24 hours before transfection, cells were plated in T175 flasks (5×10^6 cells/flask) or T75 flasks (1.7×10^6 cells/flask). Transient transfection of CHO cells was performed using TransIT-CHO reagents (Minis, Madison, Wis.) with a mixing ratio of 2:6:1 between plasmid DNA (in μg), TransIT-CHO (in μl) and CHO-mojo (in μl).
Plates are maintained at 37° C. in a humidified atmosphere with 7% CO2 overnight. Four (4) hours after cell seeding, compounds dissolved in DMSO at 10 mM were added to cells at final concentrations of 20 micromolar (μM) to 20 nanomolar (nM) in 0.2% DMSO in triplicate plates. Approximately 40 hours later, cytotoxicity in the assay well was characterized by addition of the dye resazurin (O'Brien, Wilson et al. 2000) to a final concentration of 3 μM. […] Percent viability was determined as 2 hour fluorescence, minus background at t=0 hours, normalized to DMSO controls. For detection of luciferase activity, media was removed from plates after the measurement of resazurin conversion, and SteadyLite luciferase reagent (Perkin-Elmer) was added (30 μl/well). Luminescence is detected with a Victor 2-V plate reader (Perkin-Elmer) and normalized to luciferase activity of DMSO control wells alone.

liver triglycerides = test: Liver triglycerides after oral dosing in C57BL/6 mice; assay type: in vivo; conditions: Dex 12.5 mg/kg once 2 days before necropsy
Experimental: […] A small piece of the liver (˜200 mg) was weighed and extracted to determine triglyceride content. Glycerol was liberated from liver triglycerides by hydrolysis in base. The liver fragment was incubated overnight at 55° C. in 0.35 mls of ethanolic KOH (2 parts EtOH: 1 part 30% KOH) in a closed tube. A solution of 50% ethanol in water was added to bring the volume of each tube to 1.0 ml. The solution was cleared of debris by centrifugation, and the resulting supernatant increased to 1.2 ml with further addition of 50% ethanol. Aqueous 1 M MgCl2 (215 μl) was added to 200 μl of the supernatant, and the mixture was cleared by centrifugation again after standing 10 min on ice. Glycerol levels were measured with the Sigma Free Glycerol Reagent (Sigma-Aldrich, St. Louis, Mo.) according to the manufacturer's instructions. The triglyceride concentration (in milligrams per gram of liver wet weight) was determined by assuming average molecular weight of 1000 daltons for each molecule of triglyceride.

thymocytes = test: Thymus weight and thymocyte subpopulations after oral dosing in C57BL/6 mice; assay type: in vivo
Experimental: In addition, the total number and the fraction of the major thymocyte subpopulations including CD4^+CD8^+ (DP), CD4^+CD8^- (SP4^+) and CD4^-CD8^+ (SP8^+) were measured by cell surface staining followed by FACS analysis. […] The volume of cells was adjusted to 8 mls. Debris from the thymus was allowed to settle, and a 200 μl aliquot of cells was incubated with fluorescent antibodies to CD4 and CD8 for 15 minutes at room temperature. […] Before analytical flow cytometry was carried out (FACS Calibur, Becton Dickinson), Caltag counting beads (from Invitrogen) were added to allow absolute quantitation of cell number. Thymus subpopulations were determined after gating for live cells. […] Dexamethasone reproducibly induces rapid apoptosis of DP thymocytes and reduction of thymic mass ([…], Drupt et al. 2000; Zubkova, Mostowski et al. 2005).

[1] = system: TH1 cell differentiation from naïve CD4+ T cells; test: Differentiation of naïve CD4+ T cells with IL-12 (Th-1 protocol), IFN-γ staining by FACS; assay type: cell-based, mouse; conditions: Table 8; 10 ng/ml; naïve CD4 cells, 5 days; mean ±SD; no cytokine 0.21
[2] = Dex 12.5 mg/kg once 2 days before necropsy

Q: For `CC(C)(Oc1ccc(CCNC(=O)c2ccc(Cl)cc2)cc1)C(=O)O` [Bezafibrate, bezafibrate, reference compound], which EC50 (hPPARδ) is on record?
A: The EC50 was > 20 µM.

Q: How did the “Liver triglycerides” value (liver triglycerides) turn out when `C[C@@H]1C[C@H]2[C@@H]3CCC4=CC(=O)C=C[C@]4(C)[C@@]3(F)[C@@H](O)C[C@]2(C)[C@@]1(O)C(=O)CO` [Dexamethasone, dexamethasone] was run?
A: Its value is 35.3 ± 8.2 mg/g.

Q: And the “Frequency of DP (% of total cells)” value (thymocytes; [2])?
A: Its value is 4.2 ± 2.9%.

Q: And the “Thymus weight” value (thymocytes; [2])?
A: Its value is 49.7 µg.

Q: And the “Total cells per thymus (×10^−6) DP” value (thymocytes; [2])?
A: The value was 1.0 ×10^−6.

Q: What about the “Total cells per thymus (×10^−6) SP4” value (thymocytes; [2]) of the same molecule?
A: The value was 3.9 ×10^−6.

Q: And the “Total cells per thymus (×10^−6) SP8” value (thymocytes; [2])?
A: Its value is 1.2 ×10^−6.

Q: And the “effect on DP thymocytes, in words” value (thymocytes; dexamethasone positive control, once two days before sacrifice)?
A: The value was “virtually total depletion of DP thymocytes”.

B1: IL-12: exogenous cytokine, stimulates TH1 differentiation (protein, UniProt P29459 23-219; P29460 23-328, looked up)
Interleukin-12 subunit alpha: RNLPVATPDPGMFPCLHHSQNLLRAVSNMLQKARQTLEFYPCTSEEIDHEDITKDKTSTVEACLPLELTKNESCLNSRETSFITNGSCLASRKTSFMMALCLSSIYEDLKMYQVEFKTMNAKLLMDPKRQIFLDQNMLAVIDELMQALNFNSETVPQKSSLEEPDFYKTKIKLCILLHAFRIRAVTIDRVMSYLNAS
Interleukin-12 subunit beta: IWELKKDVYVVELDWYPDAPGEMVVLTCDTPEEDGITWTLDQSSEVLGSGKTLTIQVKEFGDAGQYTCHKGGEVLSHSLLLLHKKEDGIWSTDILKDQKEPKNKTFLRCEAKNYSGRFTCWWLTTISTDLTFSVKSSRGSSDPQGVTCGAATLSAERVRGDNKEYEYSVECQEDSACPAAEESLPIEVMVDAVHKLKYENYTSSFFIRDIIKPDPPKNLQLKPLKNSRQVEVSWEYPDTWSTPHSYFSLTFCVQVQGKSKREKKDRVFTDKTSATVICRKNASISVRAQDRYYSSSWSEWASVPCS
Q: Which “IL-17 (%)” value [1] does the source give for B1 here?
A: The value was 0.09 ± 0.01%.
